Data reported in publication PMC7335359, “Design and Synthesis of Dihydroxamic Acids as HDAC6/8/10 Inhibitors” (Chemmedchem, 2020).

How the values were obtained:
HDAC10 = target: T1, HDAC10 (Homo sapiens, UniProt Q969S8); assay: ligand displacement TR-FRET assay, HDAC10; assay type: binding; design: host or cells: Sf21 insect cells (baculovirus); details: for IC50: ligand-displacement FRET assay, read-out: HDAC10 pIC50 (converted)
T1 sequence (Q969S8 1-669): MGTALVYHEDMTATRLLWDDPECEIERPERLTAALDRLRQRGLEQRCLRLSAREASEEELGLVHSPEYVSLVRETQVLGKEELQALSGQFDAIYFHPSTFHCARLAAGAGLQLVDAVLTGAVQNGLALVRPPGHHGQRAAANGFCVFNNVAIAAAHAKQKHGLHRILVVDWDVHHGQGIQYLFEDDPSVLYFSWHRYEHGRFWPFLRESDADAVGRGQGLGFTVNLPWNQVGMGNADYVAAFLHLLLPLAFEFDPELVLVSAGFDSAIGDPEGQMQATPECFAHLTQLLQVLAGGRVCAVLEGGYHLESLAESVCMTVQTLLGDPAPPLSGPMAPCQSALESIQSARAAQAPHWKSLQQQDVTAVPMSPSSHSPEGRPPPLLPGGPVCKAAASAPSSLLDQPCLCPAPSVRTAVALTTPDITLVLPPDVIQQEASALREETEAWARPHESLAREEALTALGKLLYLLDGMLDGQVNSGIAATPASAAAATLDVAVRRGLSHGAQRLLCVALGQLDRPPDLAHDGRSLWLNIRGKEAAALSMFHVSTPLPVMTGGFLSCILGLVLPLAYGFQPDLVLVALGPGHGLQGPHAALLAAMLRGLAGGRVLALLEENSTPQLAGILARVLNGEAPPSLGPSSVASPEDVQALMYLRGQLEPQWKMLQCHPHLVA
Protocol: Expression and purification of TwinStrepII‐GST‐HDAC10: A synthetic gene encoding TwinStrepII‐GST‐HDAC10 (human) was ordered from GeneArt (Thermo Fischer Scientific) and subcloned into the pFastBac1 vector. The resulting construct was used for transposition in E. coli DH10EMBacY cells. The isolated bacmid DNA was then used to generate the recombinant baculovirus. For protein expression, 10 mL of baculovirus was added to 1 L of Sf21 cells at a density of 1×10^6 cells/mL. The infected Sf21 cells were grown for 72 h in Sf‐900 III SFM medium (Thermo Fischer Scientific) at 27 °C. Cells were harvested by centrifugation and re‐suspended in running buffer (100 mM Tris pH 8.0, 150 mM NaCl, 1 mM EDTA and 1 mM DTT) supplemented with 10 mM MgCl2, benzonase and cOmplete protease inhibitors (Merck). […] The clarified lysate was then loaded onto a 5 mL Strep‐Tactin Superflow high capacity column (IBA) pre‐equilibrated in running buffer. After sample loading and washing, the TwinStrepII‐GST‐HDAC10 protein was eluted in running buffer supplemented with 5 mM desthiobiotin (IBA). The elution fractions containing TwinStrepII‐GST‐HDAC10 were pooled and concentrated before being injected onto a HiLoad 16/600 Superdex 200 pg size exclusion chromatography column (GE Healthcare) pre‐equilibrated with 25 mM HEPES/NaCl pH 7.5, 150 mM NaCl, 0.5 mM EDTA, 1 mM DTT and 10 % glycerol. Samples were eluted from the size exclusion chromatography column in the same buffer, flash‐frozen in liquid N2 and stored at −80 °C.
The TR‐FRET measurements of the monohydroxamic acids in this manuscript were measured in the original assay format, which is described directly below this paragraph. The TR‐FRET measurements of the dihydroxamic acids in this manuscript were measured in the modified format, which is described two paragraphs below this one.
The concentrations of reagents in 10 μL final assay volume were 3 nM GST‐HDAC10, 30 nM “Tubastatin‐Alexa647‐Tracer” and 0.5 nM Eu‐anti‐GST. GST‐HDAC10 and LanthaScreen™ Eu‐anti‐GST Antibody were purchased from Life Technologies, and the Tubastatin‐Alexa647‐Tracer was synthesized in‐house as previously described.19 An 11‐fold 1 : 3‐serial dilution of compounds starting at 2 mM was prepared in 384 well pp‐plates (Greiner) from 10 mM stocks in DMSO and 1 μL was transferred to assay plates. Nine μL of the reagent‐mix was added and the plate was incubated for 1 h at RT before TR‐FRET was measured in an EnVision™ plate reader equipped with a TR‐FRET Laser module. […] Percent inhibition was calculated for each well from negative control wells containing 2 % DMSO and positive control wells containing 20 μM SAHA. The resulting dose‐response curves were fitted in ActivityBase (IDBS) using a four‐parameter logistic model and pIC50‐values were calculated.
After drug dosing to the premixed assay reagents in buffer, plates were shaken (800 rpm orbital shaker, 30 s), centrifuged (300 g, 1 min) and incubated at room temperature in the dark for 60 min. TR‐FRET was measured with a CLARIOstar (BMG Labtech) plate reader, equipped with TR‐FRET filters.

[1] = tested on: lysosomal staining with LysoTracker DND‐99 (HDAC10 knockdown phenotype); assay: LysoTracker assay in SK-N-BE(2)C cells; assay type: cell-based; details: 10 μM inhibitor, normalized to DMSO
Protocol: LysoTracker assay: SK‐N‐BE(2)‐C cells were seeded into 6‐well dishes at a density of 1.5×10^5 cells per well. Cells were treated with inhibitor over night at concentrations indicated in the figure and stained the following day for 1 h with 50 nM LysoTracker® Red DND‐99 in medium under standard cell culture conditions. Cells were washed with ice‐cold RPMI without phenol‐red and trypsinized for 3 min at 37 °C. Detached cells were centrifuged for 3 min at 8600 g and re‐suspended in ice‐cold RPMI without phenol red. Mean LysoTracker fluorescence was quantified on a BD FACSCanto II platform using the PE filter setting. Data were normalized to mean LysoTracker fluorescence of solvent (DMSO) treated cells.

[2] = tested on: SK‐N‐BE(2)C neuroblastoma cell line; assay: SK-N-BE(2)C cell viability assay (CellTiter-Blue); assay type: cell-based; details: SK-N-BE(2)C cells; for effect on cell viability: up to 100 μM
Protocol: Cell viability assay: SK‐N‐BE(2)C cells were cultured in Dulbecco's modified Eagle medium (DMEM, Lonza, Basel, Switzerland) supplemented with 10 % fetal calf serum (FCS, Sigma‐Aldrich) and 1 % non‐essential amino acids (NEAA, Lonza). SK‐N‐BE(2)C cells were seeded from a confluent flask into 96‐well plates in 100 μL full growth medium at a density of 5×10^3 cells per well the day before treatment. Cells were treated in triplicates with drug concentrations as indicated in the respective figure. Drugs were dosed from 50 mM and 200 mM stock solutions with a D300e Digital Dispenser (Tecan) and DMSO concentrations were normalized to 0.2 % for all wells. Plates were shaken (1000 rpm orbital shaker, 30 s) and incubated under standard culture conditions for 72 h. To each well 20 μL of CellTiter‐Blue® reagent (G8081, Promega) was added, plates were shaken (600 rpm orbital shaker, 20 s) and incubated at 37 °C overnight. Fluorescence was measured (extinction/emission: 570 nm/590 nm) on a FluoStar Optima (BMG Labtech) plate reader. Cell viability was normalized with untreated positive controls and cell‐free negative controls. IC50‐values were calculated as described in the BRET assay.

## CN(C)Cc1nn(Cc2ccc(C(=O)NO)cc2)c2ccccc12 [Compound 1g]
HDAC10
  IC50: 19.5 nM
[1]
  lysosomal staining with LysoTracker DND-99 (HDAC10 knockdown phenotype): effective

## O=C(NO)c1ccc(Cn2ccc3ccc(C(=O)NO)cc32)cc1 [Compound 3a]
HDAC10
  IC50: 2.57 nM

## CN(C)Cc1cn(Cc2ccc(C(=O)NO)cc2)c2cc(C(=O)NO)ccc12 [Compound 3b]
HDAC10
  IC50: 2.82 nM

## CN1CCc2c(c3ccc(C(=O)NO)cc3n2Cc2ccc(C(=O)NO)cc2)C1 [Compound 3c]
HDAC10
  IC50: 12.3 nM

## O=C(NO)c1ccc(Cc2c[nH]c3ccc(C(=O)NO)cc23)cc1 [Compound 3d]
HDAC10
  IC50: 3.24 nM
[1]
  lysosomal staining with LysoTracker DND-99 (HDAC10 knockdown phenotype): induces lysosomal acidification similar to Tubastatin A
[2]; 72 h
  IC50: 7000 nM

## CN(C)CCn1cc(Cc2ccc(C(=O)NO)cc2)c2cc(C(=O)NO)ccc21 [Compound 3e]
HDAC10
  IC50: 3.02 nM
[1]
  lysosomal staining with LysoTracker DND-99 (HDAC10 knockdown phenotype): failed to produce an HDAC10 knockdown phenotype
[2]
  effect on cell viability: little effect

## O=C(NO)c1ccc(Cn2ncc3ccc(C(=O)NO)cc32)cc1 [Compound 3f]
HDAC10; FRET assay, 3f versus 1f
  increase in HDAC10 potency over the monohydroxamic acid 1f: ~70 factor
HDAC10
  IC50: 3.39 nM

## CN(C)Cc1nn(Cc2ccc(C(=O)NO)cc2)c2cc(C(=O)NO)ccc12 [Compound 3g]
HDAC10
  IC50: 3.98 nM
[1]
  lysosomal staining with LysoTracker DND-99 (HDAC10 knockdown phenotype): failed to produce an HDAC10 knockdown phenotype
[2]
  effect on cell viability: little effect
